Source: US10203334B2, “Methods and compositions related to nucleic acid binding assays” (Nubad, LLC, priority 2012, dated 2019)

Assays:
[1] = tested on: d(CCCCGGGG)2; format: physicochemical
Text: (§1) The local electrostatic potential (Ψ) in the major groove is given by the following Equation 3. Ψ=−[R·T·ln 10/(NA·e)]ΔpKa Eq. (3) Where ΔpKa is the difference between the free Fluorescein-neomycin and the Fluorescein-neomycin in the presence of the electrostatic environment, R is the universal gas constant, T is the absolute temperature in kelvin, NA is the Avogadro constant, and e is the elementary charge. R=8.312 J mol−1K−1, T=298.2K, NA=6.023×10^23 and e=1.602×10^−19; Ψ is expressed in mV. Thus a shift of +1 in the value of the pKa implies an electrostatic potential of […]. […] Based on this Δpka of 0.86, the electrostatic potential of the microenvironment for the fluorescein moiety in the complex is determined to be −50.9 mV.
(§2) Determination of the pKa was done using chemometric analysis of the absorption profiles at various pH values of the covalently attached fluorescein moiety (Kubista, M., et al., (1993) Anal. Chem. 65, 994-998, Kubista, M., et al., (1995) Anal. Chim. Acta. 302, 121-125.2, 3). The pH dependent absorption profile of free fluorescein-neomycin was first analyzed to determine its pKa. […] The electrostatic potential (P) calculated from the shift in pKa, and the ITC derived binding constant (K). Electrostatic potential experiments performed in 100 mM NaCl, 10 mM SC, 0.5 mM EDTA at 25° C. ITC experiments performed in 50 mM KCl, 10 mM SC, 0.5 mM EDTA (pH 6.0) at 25° C. […] Fluorescein-neomycin concentration was 10 μM. Table 1 represents the pKa values determined from the inflection point of the pH dependent absorbance scans of free fluorescein-neomycin, fluorescein-neomycin with one molar equivalent d(CCCCGGGG)2 and d(GGGGCCCC)2. The electrostatic potential (Y) calculated from the shift in pKa, and the ITC derived binding constant (K).

[2] = tested on: d(GGGGCCCC)2; format: physicochemical
Text: as §1, §2

[3] = tested on: d(CCCCGGGG)2; test: ITC derived binding constant; details: 50 mM KCl, 10 mM SC, 0.5 mM EDTA (pH 6.0) at 25° C.
Text: as §2

[4] = tested on: d(GGGGCCCC)2; test: ITC derived binding constant; details: 50 mM KCl, 10 mM SC, 0.5 mM EDTA (pH 6.0) at 25° C.
Text: as §2

[5] = tested on: RNA triplex poly(rA).2poly(rU); test: Competition dialysis; format: binding
Text: (§3) Disclosed is the use of fluorescent aminosugar probes such as F-neo (42a) to probe a variety of nucleic acid targets. Competition dialysis was used as a nucleic acid screening technique to illustrate the binding of F-neo (42a) to different nucleic acid structures.
(§4) Competition dialysis studies using a fluorescein-neomycin conjugate (F-neo (42a)). […] Comparative binding of F-neo (42a) to 13 different nucleic acid structures was examined which included single strand nucleic acids [poly(dT), poly(A), poly(U)], duplexes [poly(dA).poly(dT), poly(rA).poly(dT), poly(rA).poly(rU), poly(dA).poly(rU), poly(dG).poly(dC), calf thymus], triplexes [poly(dA).2poly(dT), poly(rA).2poly(rU)], i-motif (polydC) and 16S A-site rRNA (SEQ ID No. 1). The amount of F-neo (42a) bound to each nucleic acid is shown as a bar graph in FIG. 13. Because all nucleic acids are dialyzed simultaneously in the same ligand solution, the amount of bound F-neo (42a) is directly proportional to its affinity for each nucleic acid. […] 200 μL of different nucleic acids (7.5 μM per monomeric unit of each polymer) was dialyzed for 72 h with 400 mL 100 nM ligand in 6 mM Na2HPO4, 2 mM NaH2PO4, 1 mM Na2EDTA, pH 7.0 and various Na+ concentrations as indicated.
(§5) F-neo (42a) prefers to bind to 16S A-site rRNA yielding a bound ligand concentration of 85 nM in 100 mM Na^+, 50 nM in 150 mM Na^+, and 15 nM in 200 mM Na^+ is shown in FIG. 15.

[6] = tested on: RNA duplex poly(rA).poly(rU); test: Competition dialysis; format: binding; details: under these salt conditions (100-200 mM Na^+)
Text: as §3, §4, §5

[7] = tested on: DNA duplex poly(dA).poly(dT), hybrid duplex poly(rA).poly(dT), calf thymus DNA, i-motif DNA, and all single-stranded nucleic acids; test: Competition dialysis; format: binding
Text: as §3, §4, §5

[8] = tested on: d(CCCCGGGG)2; test: Fluorescein-neomycin fluorescence quenching by DNA duplex; format: binding; details: 1 μM probe, 10 mM SC, 0.5 mM EDTA, pH 6.8
Description: (§6) It has been shown that the fluorescence of a fluorescein-neomycin is quenched when bound to a nucleic acid target. In continued efforts to expand the applications of the fluorescein-neomycin conjugate, a fluorescence quenching study was performed to determine if the quenching of fluorescein-neomycin in the presence of DNA is representative of the neomycin affinity. Previous studies using the duplexes d(GGGGCCCC)2 and d(CCCCGGGG)2 have shown the binding is lower for d(CCCCGGGG)2. This has been shown from the ITC derived binding constants, FID studies, and electrostatic potential studies. […] For this reason the fluorescence quenching of fluorescein-neomycin with d(GGGGCCCC)2 and d(CCCCGGGG)2 was performed at three different buffer salt concentrations. […] Results from this study show here that the fluorescein-neomycin quenching can be applied to screening the 256 GC rich hairpins to identify which sequence neomycin has the highest affinity. Table 2 represents the change in fluorescence (%) values of fluorescein-neomycin with 1rdr d(GGGGCCCC)2 and d(CCCCGGGG)2 in 3 different buffer salt concentrations and the ratio between the change in fluorescence (%) values of F-neo with d(CCCCGGGG)2 compared to d(GGGGCCCC)2. Fluorescein-neomycin=1 μM, Buffer=10 mM SC, 0.5 mM EDTA, and either 50 mM NaCl, 100 mM NaCl, or 150 mM NaCl (pH=6.8). Experiment was performed in triplicate and the results were also polted in FIG. 10 showing the change in fluorescence (%) of fluorescein-neomycin with 1 equivalent d(GGGGCCCC)2 and d(CCCCGGGG)2 in 3 different buffer salt concentrations.

[9] = tested on: d(GGGGCCCC)2; test: as above; format: binding; details: 1 μM probe, 10 mM SC, 0.5 mM EDTA, pH 6.8
Description: as §6

[10] = electrostatic potential calculated from the shift in pKa
[11] = versus free fluorescein-neomycin
[12] = 50 mM NaCl, listed as Fluorescein-neomycin
[13] = 50 mM NaCl, listed as fluorescein-neomycin
[14] = 150 mM NaCl, listed as Fluorescein-neomycin
[15] = 150 mM NaCl, listed as fluorescein-neomycin

SMILES: NCC1O[C@H](OC2C(O)C(OC3C(O)[C@H](N)CC(N)[C@H]3O[C@H]3OC(CN)[C@@H](O)C(O)C3N)O[C@@H]2CSCCNC(=O)CCSCC(=O)Nc2ccc(-c3c4ccc(=O)cc-4oc4cc(O)ccc34)c(C(=O)O)c2)C(N)C(O)[C@@H]1O (some centres unmarked) [F-neo (42a), Neomycin-Fluorescein Conjugate]
- Ψ (mV) [1, 10]: −15.13 mV
- pKa ([1]; one molar equivalent d(CCCCGGGG)2, 100 mM NaCl, 10 mM SC, 0.5 mM EDTA at 25° C.): 6.83
- ΔpKa [1, 11]: 0.26
- Ψ (mV) [2, 10]: −25.61 mV
- pKa ([2]; one molar equivalent d(GGGGCCCC)2, 100 mM NaCl, 10 mM SC, 0.5 mM EDTA at 25° C.): 7.01
- ΔpKa [2, 11]: 0.44
- K (M^−1) × 10^5 [3]: 7.97 ± 10.9 (M^−1) × 10^5
- K (M^−1) × 10^5 [4]: 66.3 ± 9.7 (M^−1) × 10^5
- bound F-neo (42a) ([5]; 100 mM Na^+): 60 nM
- bound F-neo (42a) ([5]; 150 mM Na^+): 20 nM
- bound F-neo (42a) ([5]; 200 mM Na^+): 5 nM
- bound drug [6]: 10 to 20 nM
- binding in competition dialysis [7]: moderate to very weak binding
- ΔF (%) with 1rdr d(CCCCGGGG)2 [8, 12]: 47.75 ± 5.60%
- ΔF (%) with 1rdr d(CCCCGGGG)2 [8, 13]: 47%
- ΔF (%) with 1rdr d(CCCCGGGG)2 ([8]; 100 mM NaCl): 32.18 ± 0.42%
- ΔF (%) with 1rdr d(CCCCGGGG)2 [8, 14]: 20.36 ± 2.76%
- ΔF (%) with 1rdr d(CCCCGGGG)2 [8, 15]: 20%
- ΔF (%) with 1rdr d(GGGGCCCC)2 [9, 12]: 73.97 ± 5.78%
- ΔF (%) with 1rdr d(GGGGCCCC)2 [9, 13]: 73%
- ΔF (%) with 1rdr d(GGGGCCCC)2 ([9]; 100 mM NaCl): 49.28 ± 1.12%
- ΔF (%) with 1rdr d(GGGGCCCC)2 [9, 14]: 33.88 ± 3.33%
- ΔF (%) with 1rdr d(GGGGCCCC)2 [9, 15]: 33%
